Data published in ChEMBL document CHEMBL5154769, “Discovery of the First-in-Class Agonist-Based SOS1 PROTACs Effective in Human Cancer Cells Harboring Various KRAS Mutations” (J Med Chem, 2022).
Calls of active or inactive are those of the source. The rule behind the calls is not given here.

How the values were obtained:
[1] = target: T1, von Hippel-Lindau disease tumor suppressor/Son of sevenless homolog 1 (Homo sapiens, UniProt Q07889+P40337, G12C); experiment: Protac activity at VHL/SOS1 in human MIA PaCa-2 cells harboring KRAS G12C mutant assessed as SOS1 protein degradation incubated for 24 hr by Western blot analysis; format: cell-based
ASPC1 = experiment: Antiproliferative activity against human ASPC1 cells harboring KRAS G12D mutant assessed as cell growth inhibition incubated for 7 days by CellTiter-Glo 3D cell viability assay; format: functional, cell-based; conditions: ASPC1, 168 h
[2] = Half life in BALB/c mouse at 10 mg/kg, ip measured after 24 hrs by LC-MS/MS analysis; format: ADME, organism-based; conditions: in vivo
[3] = target: T2, von Hippel-Lindau disease tumor suppressor/Son of sevenless homolog 1 (Homo sapiens, UniProt Q07889+P40337); experiment: Protac activity at VHL/SOS1 in human A549 cells harboring KRAS […] mutant assessed as SOS1 protein degradation incubated for 24 hr by Western blot analysis; format: cell-based
Mus musculus = experiment: In vivo inhibition of phosphorylated ERK level in BALB/c nude mouse xenografted with human NCI-H358 cells at 20 to 50 mg/kg, IT incubated for 21 days by immunohistochemistry analysis; format: functional, organism-based; conditions: dose 20-50 mg/kg, time 21.0 day
[4] = target: T1, von Hippel-Lindau disease tumor suppressor/Son of sevenless homolog 1; experiment: Protac activity at VHL/SOS1 in human NCI-H358 cells harboring KRAS G12C mutant assessed as SOS1 protein degradation incubated for 24 hr by Western blot analysis; format: cell-based
[5] = target: T3, von Hippel-Lindau disease tumor suppressor/Son of sevenless homolog 1 (Homo sapiens, UniProt Q07889+P40337, G12D); experiment: Protac activity at VHL/SOS1 in human ASPC1 cells harboring KRAS G12D mutant assessed as SOS1 protein degradation incubated for 24 hr by Western blot analysis; format: cell-based
Homo sapiens [6] = organism: Homo sapiens; experiment: Binding affinity to SOS1/VCB E3 ligase (unknown origin) assessed as ternary complex formation by measuring hook effect incubated for 1 hr by HTRF assay
SK-LU-1 = experiment: Antiproliferative activity against human SK-LU-1 cells harboring KRAS G12D mutant assessed as cell growth inhibition incubated for 7 days by CellTiter-Glo 3D cell viability assay; format: functional, cell-based; conditions: SK-LU-1, 168 h
[7] = target: T4, von Hippel-Lindau disease tumor suppressor/Son of sevenless homolog 2 (Homo sapiens) (UniProt P40337+Q07890); experiment: Protac activity at VHL/SOS2 in human NCI-H358 cells assessed as SOS2 mRNA level at 1 uM incubated for 24 to 72 hr by qRT PCR analysis; format: cell-based; conditions: time 24-72 hrs
Homo sapiens [8] = organism: Homo sapiens; experiment: Co-operativity factor, Ratio of Kd for Binding affinity to VCB E3 ligase (unknown origin) assessed as binary equilibrium dissociation constant to Kd for binding affinity to SOS1/VCB E3 ligase (unknown origin) assessed as ternary dissociation constant
[9] = AUClast in BALB/c mouse at 10 mg/kg, ip measured after 24 hrs by LC-MS/MS analysis; format: ADME, organism-based; parameters: dose 10 mg/kg, time 24 hrs, route ip; conditions: in vivo
HEK-293T = experiment: Cytotoxicity against human HEK-293T cells assessed as cell growth inhibition incubated for 7 days by CellTiter-Glo 3D cell viability assay; format: toxicity, cell-based; conditions: 168 h, time 7 day
A549 = experiment: Antiproliferative activity against human A549 cells harboring KRAS G12S mutant assessed as cell growth inhibition incubated for 7 days by CellTiter-Glo 3D cell viability assay; format: functional, cell-based; conditions: A549, 168 h
NCI-H358 [10] = experiment: Antitumor activity against human NCI-H358 cells xenografted in BALB/c nude mouse assessed as tumor growth inhibition at 10 mg/kg/day, ip incubated for 21 days; format: functional; conditions: NCI-H358, 504 h, time 21 day, read-out: TGI
[11] = target: von Hippel-Lindau disease tumor suppressor/Son of sevenless homolog 1 (Homo sapiens, UniProt Q07889+P40337, G12V); experiment: Protac activity at VHL/SOS1 in human SW-620 cells harboring KRAS G12V mutant assessed as SOS1 protein degradation incubated for 24 hr by Western blot analysis; format: cell-based
[12] = target: T2, von Hippel-Lindau disease tumor suppressor/Son of sevenless homolog 1; experiment: Protac activity at VHL/SOS1 in human NCI-H358 cells assessed as SOS1 protein degradation at 1 uM and measured after 4 to 24 hr by western blot analysis; format: cell-based; conditions: time 4-24 hrs
Target sequence in this assay (P40337 whole entry, looked up): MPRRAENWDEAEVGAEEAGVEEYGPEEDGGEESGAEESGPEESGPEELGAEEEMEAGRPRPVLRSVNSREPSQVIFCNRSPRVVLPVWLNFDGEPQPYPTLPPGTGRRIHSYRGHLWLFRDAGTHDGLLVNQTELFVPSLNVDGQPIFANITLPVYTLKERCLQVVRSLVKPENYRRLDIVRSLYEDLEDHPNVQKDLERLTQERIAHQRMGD
Target sequence in this assay (Q07889 whole entry, looked up): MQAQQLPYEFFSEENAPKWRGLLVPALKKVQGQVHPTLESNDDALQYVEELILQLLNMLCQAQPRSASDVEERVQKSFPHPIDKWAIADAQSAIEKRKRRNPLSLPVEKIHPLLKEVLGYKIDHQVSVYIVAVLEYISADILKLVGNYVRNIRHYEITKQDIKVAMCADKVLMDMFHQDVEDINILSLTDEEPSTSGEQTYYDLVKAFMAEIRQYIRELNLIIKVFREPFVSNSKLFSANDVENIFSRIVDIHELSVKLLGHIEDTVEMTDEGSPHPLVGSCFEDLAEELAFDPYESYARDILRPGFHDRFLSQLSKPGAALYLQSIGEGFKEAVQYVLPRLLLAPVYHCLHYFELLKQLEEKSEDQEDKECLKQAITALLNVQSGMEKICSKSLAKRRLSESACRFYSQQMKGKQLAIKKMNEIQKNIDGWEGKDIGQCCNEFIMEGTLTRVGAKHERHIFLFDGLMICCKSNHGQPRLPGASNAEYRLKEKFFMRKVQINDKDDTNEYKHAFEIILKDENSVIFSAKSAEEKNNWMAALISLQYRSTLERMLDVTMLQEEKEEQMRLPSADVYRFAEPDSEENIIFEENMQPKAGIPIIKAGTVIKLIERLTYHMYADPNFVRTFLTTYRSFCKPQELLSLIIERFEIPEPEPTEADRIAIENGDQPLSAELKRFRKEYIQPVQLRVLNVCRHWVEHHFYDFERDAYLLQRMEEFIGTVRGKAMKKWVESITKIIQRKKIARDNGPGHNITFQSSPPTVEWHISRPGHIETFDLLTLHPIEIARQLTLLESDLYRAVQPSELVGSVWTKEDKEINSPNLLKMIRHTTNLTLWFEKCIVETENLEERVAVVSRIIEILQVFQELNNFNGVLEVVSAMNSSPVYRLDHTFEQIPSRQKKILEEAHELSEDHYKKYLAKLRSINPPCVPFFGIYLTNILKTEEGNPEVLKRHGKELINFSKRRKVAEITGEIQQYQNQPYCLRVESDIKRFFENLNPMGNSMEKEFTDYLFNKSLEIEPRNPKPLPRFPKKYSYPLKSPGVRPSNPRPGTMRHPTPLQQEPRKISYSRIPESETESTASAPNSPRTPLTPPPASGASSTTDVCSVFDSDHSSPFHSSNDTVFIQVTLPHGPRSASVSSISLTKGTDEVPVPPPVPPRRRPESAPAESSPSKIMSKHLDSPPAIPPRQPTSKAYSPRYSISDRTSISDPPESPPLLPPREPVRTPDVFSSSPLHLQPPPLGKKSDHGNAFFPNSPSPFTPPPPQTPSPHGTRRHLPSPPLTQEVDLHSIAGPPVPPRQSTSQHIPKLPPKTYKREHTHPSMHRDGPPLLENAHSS

MIA PaCa-2 = experiment: Antiproliferative activity against human MIA PaCa-2 cells harboring KRAS G12C mutant assessed as cell growth inhibition incubated for 7 days by CellTiter-Glo 3D cell viability assay; format: functional, cell-based; conditions: MIA PaCa-2, 168 h
[13] = target: Von Hippel-Lindau disease tumor suppressor/Elongin B/Elongin C (Homo sapiens, UniProt P40337); experiment: Binding affinity to VCB E3 ligase (unknown origin) assessed as binary equilibrium dissociation constant by surface plasmon resonance analysis; format: protein-complex assay
[14] = target: T2, von Hippel-Lindau disease tumor suppressor/Son of sevenless homolog 1; experiment: Protac activity at VHL/SOS1 in human NCI-H358 cells assessed as SOS1 protein degradation at 0.1 uM incubated for 24 hr by Western blot analysis relative to control; format: cell-based
Target sequence in this assay (P40337 whole entry, looked up): as the sequence (P40337 whole entry, looked up) above
Target sequence in this assay (Q07889 whole entry, looked up): as the sequence (Q07889 whole entry, looked up) above

[15] = Observed AUC (infinity) in BALB/c mouse at 10 mg/kg, ip measured after 24 hrs by LC-MS/MS analysis; format: ADME, organism-based; parameters: dose 10 mg/kg, time 24 hrs, route ip; conditions: in vivo
[16] = Tmax in BALB/c mouse at 10 mg/kg, ip measured after 24 hrs by LC-MS/MS analysis; format: ADME, organism-based; conditions: in vivo
NCI-H358 [17] = experiment: Effect of compound on human NCI-H358 cells assessed as decrease in phophorylated ERK level at 1 uM and measured after 6 to 24 hr by Western blot analysis; format: functional, cell-based; conditions: time 6-24 hrs
NCI-H358 [18] = experiment: Effect of compound on human NCI-H358 cells assessed as increase in phophorylated ERK level at 1 uM incubated for 4 hr by Western blot analysis; format: functional, cell-based
SW-620 = experiment: Antiproliferative activity against human SW620 cells harboring KRAS G12V mutant assessed as cell growth inhibition incubated for 7 days by CellTiter-Glo 3D cell viability assay; format: functional, cell-based; conditions: SW-620, 168 h
[19] = target: T3, von Hippel-Lindau disease tumor suppressor/Son of sevenless homolog 1; experiment: Protac activity at VHL/SOS1 in human SK-LU-1 cells harboring KRAS G12D mutant assessed as SOS1 protein degradation incubated for 24 hr by Western blot analysis; format: cell-based
[20] = Cmax in BALB/c mouse at 10 mg/kg, ip measured after 24 hrs by LC-MS/MS analysis; format: ADME, organism-based; parameters: dose 10 mg/kg, time 24 hrs, route ip; conditions: in vivo
[21] = target: T4, von Hippel-Lindau disease tumor suppressor/Son of sevenless homolog 2 (Homo sapiens); experiment: Protac activity at VHL/SOS2 in human ASPC1 cells assessed as SOS2 mRNA level at 1 uM incubated for 24 to 72 hr by qRT PCR analysis; format: cell-based; conditions: time 24-72 hrs
[22] = target: T2, von Hippel-Lindau disease tumor suppressor/Son of sevenless homolog 1; experiment: Protac activity at VHL/SOS1 in human NCI-H358 cells assessed as SOS1 protein degradation at 1 uM incubated for 24 hr by Western blot analysis relative to control; format: cell-based
Target sequence in this assay (P40337 whole entry, looked up): as the sequence (P40337 whole entry, looked up) above
Target sequence in this assay (Q07889 whole entry, looked up): as the sequence (Q07889 whole entry, looked up) above

[23] = Toxicity in BALB/c nude mouse xenografted with human NCI-H358 cells assessed as effect on body weight at 10 to 20 mg/kg/day, ip for 21 days and measured every 3 day; format: organism-based; conditions: in vivo, 504 h, dose 10-20 mg/kg/day, time 21 day
[24] = target: T2, von Hippel-Lindau disease tumor suppressor/Son of sevenless homolog 1; experiment: Protac activity at VHL/SOS1 in human NCI-H358 cells assessed as SOS1 protein degradation incubated for 24 hr by Western blot analysis; format: cell-based

T1 sequence (P40337 whole entry, looked up, stated change not applied): as the sequence (P40337 whole entry, looked up) above
T1 sequence (Q07889 whole entry, looked up, stated change not applied): as the sequence (Q07889 whole entry, looked up) above
T3 sequence (P40337 whole entry, looked up, stated change not applied): as the sequence (P40337 whole entry, looked up) above
T3 sequence (Q07889 whole entry, looked up, stated change not applied): as the sequence (Q07889 whole entry, looked up) above
Sequence of Von Hippel-Lindau disease tumor suppressor/Elongin B/Elongin C (P40337 whole entry, looked up): as the sequence (P40337 whole entry, looked up) above

Cc1cc(Cn2c(N3CC4(CNC4)C3)nc3c(N4CCN(CCCCCCCCC(=O)N[C@H](C(=O)N5C[C@H](O)C[C@H]5C(=O)N[C@@H](C)c5ccc(-c6scnc6C)cc5)C(C)(C)C)CC4)cc(Cl)cc32)cc(C)c1F showed a DC50 [1] of 255 nM, an IC50 (ASPC1) of 307 nM and a half-life [2] of 8.64 h. The DC50 [3] was 22 nM, the Activity (Mus musculus) was “Active” and the DC50 [4] was 98 nM. The DC50 [5] was 119 nM, the Activity (Homo sapiens [6]) was “Active” and the IC50 (SK-LU-1) was 115 nM. The Activity [7] was “Active”, the Ratio (Homo sapiens [8]) was 15.1 and the AUC(0-t) at 24 h [9] was 3900 ng·h/mL. The Activity (HEK-293T) was “Non-Toxic”, the IC50 (A549) was 232 nM and the inhibition in vivo at 10 mg/kg/day (NCI-H358 [10]) was 72.5%. For the same molecule, the DC50 [11] was 125 nM, the Activity [12] was “Active” and the IC50 (MIA PaCa-2) was 218 nM. For the same molecule, the Kd [13] was 56 nM, the Activity [14] was 56.2% and the AUC(0-inf) [15] was 4420 ng·h/mL. The Tmax [16] was 0.25 h, the Activity (NCI-H358 [17]) was “Active” and the Activity (NCI-H358 [18]) was “Active”. It also gave an IC50 (SW-620) of 199 nM, a DC50 [19] of 104 nM and a Cmax [20] of 1220 ng/mL. For the same molecule, the Activity [21] was “Active”, the Activity [22] was 92.5% and the Activity [23] was “Non-Toxic”. For the same molecule, the DC50 [24] was 98.4 nM.
